From US9862680B2, “Peripherally substituted monocyclic beta-lactams” (University of Notre Dame du Lac, priority 2016, dated 2018)

How the values were obtained:
[1] = test system: panel of Gram-positive and Gram-negative bacteria; assay: Kirby-Bauer agar diffusion assays, results in words; format: cell-based
Protocol: (§1) Antibacterial activity of the compounds was determined by a modified Kirby-Bauer^27-28 agar-diffusion assay. Overnight cultures of test organisms were grown in LB broth for 18-24h and standard suspensions of […] were prepared in saline solution (0.9% NaCl) according to a 0.5 BaSO4 McFarland Standard. This standardized suspension (0.1 mL) was added to 34 mL of sterile, Mueller Hinton No. 2 agar tempered to 47-50° C. After gentle mixing, the inoculated agar media was poured into a sterile plastic petri dish (145 mm×20 mm) and allowed to solidify near a flame with the lid cracked for 30 min. Wells of 9.0 mm diameter were cut from the petri dish agar and filled with exactly 50 μL of the test sample solution. For studies using mixtures of compounds, both test compounds were diluted to equal concentrations and 50 μL of the mixed compound solution was added to the cut well. The petri dish was incubated at 37° C. for 18-24 h and the inhibition zone diameters were measured (mm) with an electronic caliper after 24-48 h.
(§2) All compound-containing solutions were prepared by first making a 20 mM solution of the compound in DMSO and then diluting that solution 10-fold with MeOH to give the final 2 mM solution used in the assay.
(§3) Plates were incubated after inoculation at 37° C. for 20 hours. Plates were photographed after 1 day. M. vaccae required a longer incubation time, 48 hours, and was photographed after 3 days.

A. Baumannii ATCC 17961 = assay: Agar diffusion assay (modified Kirby-Bauer); format: cell-based; conditions: 50 μL in 9.0 mm well, P unclear, V very unclear zone, * slightly misshapen zone; for Zone of Growth Inhibition: 2 mM solution
Protocol: as §1, §2, §3

B. Dolosa AU 0018 = assay: Agar diffusion assay (modified Kirby-Bauer); format: cell-based; conditions: 2 mM solution, 50 μL in 9.0 mm well, P unclear, V very unclear zone, * slightly misshapen zone; for zone of inhibition at 2000 µM: Burkholderia dolosa, read-out: Zone of Growth Inhibition
Protocol: as §1, §2, §3

B. Subtilis ATCC 6633 = assay: Agar diffusion assay (modified Kirby-Bauer); format: cell-based; conditions: 50 μL in 9.0 mm well, P unclear, V very unclear zone, * slightly misshapen zone; for Zone of Growth Inhibition: 2 mM solution
Protocol: as §1, §2, §3

E. Coli DC0 = assay: Agar diffusion assay (modified Kirby-Bauer); format: cell-based; conditions: 2 mM solution, 50 μL in 9.0 mm well, P unclear, V very unclear zone, * slightly misshapen zone; for zone of inhibition at 2000 µM: Escherichia coli, read-out: Zone of Growth Inhibition
Protocol: as §1, §2, §3

E. Coli DC2 = assay: Agar diffusion assay (modified Kirby-Bauer); format: cell-based
Protocol: as §1, §2, §3

M. Luteus ATCC 10240 = assay: Agar diffusion assay (modified Kirby-Bauer); format: cell-based
Protocol: as §1, §2, §3

M. Vaccae IMET 10670 = assay: Agar diffusion assay (modified Kirby-Bauer); format: cell-based; conditions: 2 mM solution, 50 μL in 9.0 mm well, 48 hours incubation, P unclear, V very unclear zone, * slightly misshapen zone; for zone of inhibition at 2000 µM: Mycolicibacterium vaccae, read-out: Zone of Growth Inhibition
Protocol: as §1, §2, §3

P. Aeruginosa K799/wt = assay: Agar diffusion assay (modified Kirby-Bauer); format: cell-based; conditions: P. Aeruginosa K799/wt (wild type), 2 mM solution, 50 μL in 9.0 mm well, P unclear, V very unclear zone, * slightly misshapen zone
Protocol: as §1, §2, §3

S. Aureus SG511 = assay: Agar diffusion assay (modified Kirby-Bauer); format: cell-based; conditions: 2 mM solution, 50 μL in 9.0 mm well, P unclear, V very unclear zone, * slightly misshapen zone; for zone of inhibition at 2000 µM: Staphylococcus aureus, read-out: Zone of Growth Inhibition
Protocol: as §1, §2, §3

[2] = test system: panel of Gram-positive and Gram-negative bacteria; assay: MIC determination; format: cell-based; conditions: same panel of Gram-positive and Gram-negative bacteria, all values
P. Aeruginosa K799/61 = assay: Agar diffusion assay (modified Kirby-Bauer); format: cell-based; conditions: for Zone of Growth Inhibition: P. Aeruginosa K799/61 (permeability mutant), 2 mM solution, 50 μL in 9.0 mm well, P unclear, V very unclear zone, * slightly misshapen zone
Protocol: as §1, §2, §3

AmpC = assay: β-lactamase inhibition, Ki by enzyme kinetics (nitrocefin); format: biochemical; conditions: class C
Protocol: (§4) The enzymes KPC-2, Oxa-48, AmpC and NDM-1 were purchased from Emerald Bioscience and the enzymes CTX-14 and SHV-12 were expressed and purified from E. coli at Rempex pharmaceutical (San Diego, Calif.).
(§5) To the first row of a 2-mL deep 96-well block was added 1 mL of 50 mM sodium phosphate buffer at pH 7 with 0.1 mg/mL BSA (bovine serum albumin). To the first row was added an appropriate amount of a 10 mg/mL solution of the compound to be tested to make a 640 μM (4×) solution. Each of the other wells in the 96-well block were charged with 750 μL of the aforementioned buffer. The rows were then repeatedly diluted 1:3 so that the final concentrations of the individual 96-well plates would range in concentrations from 160 μM to 3 nM (8 dilutions). The master block was then used to add 50 pt to each corresponding well in the 96-well flat-bottom plate. An additional 50 of buffer was added to each well. Once the plates were prepared, 50 μL of the enzyme to be tested against were added in buffer to each well [KPC-2 (0.147 mg/mL), CTX-M-14 (0.102 mg/mL), […] (0.331 mg/mL), AmpC (0.699 mg/mL), SHV-12 (0.111 mg/mL), NDM-1 (0.110 mg/mL)]. The plates were incubated at rt for 10 min before 50 μL. of an appropriate indicator were added to each well and the optical density at 495 nm was measured over time. For each enzyme, other than NDM-1, nitrocefin was used. Nitrocefin (10 μM for SHV-12, 50 μM for the other enzymes), was appropriate because when cleaved by a β-lactamase, the color changes from yellow to red. For NDM-1, imipenem (10 μM) was the indicator of choice. Rather than observe the growing presence of optical density at 495 nm, as with nitrocefin, the disappearance of imipenem was monitored. The inhibition curves were monitored and used to perform enzyme kinetics according to Waley to determine the Ki (μM) of each compound against the β-lactamases screened.

CTX-M-14 = target: T1, CTX-M-14 (Escherichia coli, UniProt Q9L5C7); assay: as above; format: biochemical; conditions: CTX-M-14, class A
T1 construct: host or cells: E. coli
Protocol: as §4, §5

KPC-2 = target: T2, KPC-2 (Klebsiella pneumoniae, UniProt Q9F663); assay: as above; format: biochemical; conditions: KPC-2, class A
T2 construct: purchased Emerald Bioscience
Protocol: as §4, §5

Oxa-48 = target: T3, Oxa-48 (Klebsiella pneumoniae, UniProt Q6XEC0); assay: as above; format: biochemical; conditions: Oxa-48, class D
T3 construct: purchased Emerald Bioscience
Protocol: as §4, §5

SHV-12 = target: T4, SHV-12 (Klebsiella pneumoniae, UniProt P0AD64, E235K/G234S/L31Q); assay: as above; format: biochemical; conditions: SHV-12, class A
T4 construct: host or cells: E. coli
Protocol: as §4, §5

PAM 2035 = assay: β-lactamase inhibition, Ki by enzyme kinetics; format: biochemical; conditions: PAM 2035, class C
NDM-1 = target: T5, NDM-1 (Klebsiella pneumoniae, UniProt C7C422); assay: β-lactamase inhibition, Ki by enzyme kinetics (imipenem); format: biochemical; conditions: NDM-1, class B
T5 construct: purchased Emerald Bioscience
Protocol: as §4, §5

[3] = E. Coli DC2, 2 mM solution, 50 μL in 9.0 mm well, P unclear, V very unclear zone, * slightly misshapen zone
[4] = M. Luteus ATCC 10240, 2 mM solution, 50 μL in 9.0 mm well, P unclear, V very unclear zone, * slightly misshapen zone
[5] = Pseudomonas aeruginosa, read-out: Zone of Growth Inhibition

T3 sequence (Q6XEC0 23-265 limits assumed): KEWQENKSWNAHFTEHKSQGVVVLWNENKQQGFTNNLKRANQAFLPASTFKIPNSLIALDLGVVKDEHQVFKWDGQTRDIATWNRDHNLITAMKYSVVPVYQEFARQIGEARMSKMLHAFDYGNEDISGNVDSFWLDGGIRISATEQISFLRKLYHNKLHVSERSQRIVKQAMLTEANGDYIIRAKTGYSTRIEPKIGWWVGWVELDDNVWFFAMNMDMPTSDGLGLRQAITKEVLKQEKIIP
T1 sequence (Q9L5C7 entry or part of it): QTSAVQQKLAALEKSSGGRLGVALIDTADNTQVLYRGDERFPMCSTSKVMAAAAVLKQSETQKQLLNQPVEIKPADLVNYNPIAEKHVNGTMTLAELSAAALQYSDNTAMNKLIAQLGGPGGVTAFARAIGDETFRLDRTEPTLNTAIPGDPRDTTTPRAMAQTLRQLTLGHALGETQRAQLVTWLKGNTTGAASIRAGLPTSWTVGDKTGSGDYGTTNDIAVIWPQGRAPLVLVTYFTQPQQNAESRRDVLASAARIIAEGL
T2 sequence (Q9F663 25-293 limits assumed): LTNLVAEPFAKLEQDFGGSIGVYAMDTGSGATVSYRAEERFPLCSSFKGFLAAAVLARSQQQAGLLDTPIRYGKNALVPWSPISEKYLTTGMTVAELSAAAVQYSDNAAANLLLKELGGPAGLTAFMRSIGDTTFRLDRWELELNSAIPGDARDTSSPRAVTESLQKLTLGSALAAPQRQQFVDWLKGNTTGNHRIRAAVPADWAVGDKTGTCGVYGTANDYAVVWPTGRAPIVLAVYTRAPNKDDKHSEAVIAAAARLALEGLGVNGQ
T4 sequence (P0AD64 22-286 L31Q/G234S/E235K): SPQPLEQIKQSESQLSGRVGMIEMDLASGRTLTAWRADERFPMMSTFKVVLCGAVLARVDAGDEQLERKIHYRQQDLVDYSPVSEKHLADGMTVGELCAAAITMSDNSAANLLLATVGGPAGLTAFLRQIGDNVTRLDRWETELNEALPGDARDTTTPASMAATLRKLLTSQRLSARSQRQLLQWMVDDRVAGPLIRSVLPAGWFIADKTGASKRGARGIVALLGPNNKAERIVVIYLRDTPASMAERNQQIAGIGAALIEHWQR
T5 sequence (C7C422 29-270 limits assumed): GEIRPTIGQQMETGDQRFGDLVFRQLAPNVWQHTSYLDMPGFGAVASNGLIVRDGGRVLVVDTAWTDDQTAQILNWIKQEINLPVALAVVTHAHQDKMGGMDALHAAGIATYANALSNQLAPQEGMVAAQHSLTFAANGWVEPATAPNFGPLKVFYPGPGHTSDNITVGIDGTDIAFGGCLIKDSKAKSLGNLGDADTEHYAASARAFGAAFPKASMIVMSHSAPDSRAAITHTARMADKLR

Row | Structure (SMILES) | Zone of Growth Inhibition (A. Baumannii ATCC 17961) | Zone of Growth Inhibition (B. Dolosa AU 0018) [mm] | Zone of Growth Inhibition (B. Subtilis ATCC 6633) | Zone of Growth Inhibition (E. Coli DC0) [mm] | Zone of Growth Inhibition (E. Coli DC2; [3]) | Zone of Growth Inhibition (M. Luteus ATCC 10240; [4]) | Zone of Growth Inhibition (M. Vaccae IMET 10670) | Zone of Growth Inhibition (P. Aeruginosa K799/wt) | Zone of Growth Inhibition (S. Aureus SG511) | Zone of Growth Inhibition (P. Aeruginosa K799/61) | further results
1 | COC(=O)CSCC1C(NC(=O)Cc2ccccc2)C(=O)N1S(=O)(=O)[O-].[K+] (racemic) [Compound 29] |  |  |  |  |  |  |  |  |  |  | antibacterial activity ([1]; agar diffusion, overall): did not show any activity
2 | CC(C)(ON=C(C(=O)NC1C(=O)N(S(=O)(=O)[O-])C1CSCCN)c1cnc(N)s1)C(=O)O.[K+] (racemic) [Compound 48] | 12P | 15 | 0 mm | 26 | 28 mm | 26P | 0 mm | 18P | 0 mm |  | antibacterial activity (M. Luteus ATCC 10240; on the Gram-positive M. luteus): very interesting activity; antibacterial activity against Gram-negative bacteria ([1]; agar diffusion, Gram-negative bacteria): very interesting activity
3 | CO/N=C(\C(=O)N[C@@H]1C(=O)N(S(=O)(=O)[O-])[C@H]1CSCCNC(=O)OC(C)(C)C)c1cnc(N)s1.[K+] [Compound 43] |  |  |  |  |  |  |  | 0ppt |  |  | zone of inhibition at 2000 µM (A. Baumannii ATCC 17961; Acinetobacter baumannii, ATCC17961, 2 mM solution, read-out: Zone of Growth Inhibition): 0 mm; zone of inhibition at 2000 µM (B. Dolosa AU 0018): 0 mm; zone of inhibition at 2000 µM (B. Subtilis ATCC 6633; Bacillus subtilis, ATCC6633, 2 mM solution, read-out: Zone of Growth Inhibition): 18 mm; zone of inhibition at 2000 µM (E. Coli DC0): 0 mm; zone of inhibition at 2000 µM (E. Coli DC2; Escherichia coli, E. Coli DC2, 2 mM solution, 50 μL in 9.0 mm well, P unclear, V very unclear zone, * slightly misshapen zone, read-out: Zone of Growth Inhibition): 29 mm; zone of inhibition at 2000 µM (M. Luteus ATCC 10240; Micrococcus luteus, ATCC10240, M. Luteus ATCC 10240, 2 mM solution, 50 μL in 9.0 mm well, P unclear, V very unclear zone, * slightly misshapen zone, read-out: Zone of Growth Inhibition): 0 mm; zone of inhibition at 2000 µM (M. Vaccae IMET 10670): 0 mm; zone of inhibition at 2000 µM (S. Aureus SG511): 0 mm; antibacterial activity ([1]; against B. subtilis and the permeability mutant forms of P. aeruginosa and E. coli): moderate activity; antibacterial activity ([1]; corresponding wild strains of P. aeruginosa and E. coli): inactivity; MIC [2]: > 50 µM
4 | CO/N=C(\C(=O)N[C@@H]1C(=O)N(S(=O)(=O)[O-])[C@H]1CSCCN)c1cnc(N)s1.[K+] [Compound 44] |  |  | 16V |  |  | 14 s |  |  |  |  | zone of inhibition at 2000 µM (B. Dolosa AU 0018): 0 mm; zone of inhibition at 2000 µM (E. Coli DC0): 23 mm; antibacterial activity (E. Coli DC2; against E. coli DC2, called wild type in the text): active; zone of inhibition at 2000 µM (M. Vaccae IMET 10670): 0 mm; zone of inhibition at 2000 µM (P. Aeruginosa K799/61; [5]): 14 mm; zone of inhibition at 2000 µM (P. Aeruginosa K799/wt; [5]): 0 mm; zone of inhibition at 2000 µM (S. Aureus SG511): 0 mm; antibacterial activity ([1]; against B. subtilis, M. luteus, A. baumannii and the permeability mutant strains of P. aeruginosa and E. coli): moderately active; MIC [2]: > 50 µM
5 | CC(C)c1cc(C(C)C)c(S(=O)(=O)ON2C(=O)CC2CBr)c(C(C)C)c1 (stereo not drawn) [Compound 61d] | 0 mm | 0 |  | 0 | 0 mm |  |  | 0 mm |  | 0 mm | Ki (AmpC): > 160 µM; Ki (CTX-M-14): > 160 µM; Ki (KPC-2): > 160 µM; Ki (Oxa-48): > 160 µM; Ki (SHV-12): > 160 µM; Ki (PAM 2035): > 160 µM; Ki (NDM-1): > 160 µM
6 | O=C1CC(CBr)N1OS(=O)(=O)c1ccc([N+](=O)[O-])cc1 (stereo not drawn) [Compound 61e] | 0 mm | 0 |  | 0 | 0 mm | 0 mm | 0 mm | 0 mm | 0 mm | 12.6* mm | 
7 | O=C1CC(CBr)N1OS(=O)(=O)c1ccc([N+](=O)[O-])cc1[N+](=O)[O-] (stereo not drawn) [Compound 61f] | 16V | 0 | 22 mm | 0 | 16P | 18P | 28 mm | 0 mm | 21P | 0 mm | 
8 | Cc1ccc(S(=O)(=O)ON2C(=O)CC2CBr)cc1 (stereo not drawn) [Compound 61g] | 13.5 mm | 0 | 0 mm | 0 | 0 mm | 16P | 19V | 0 mm | 18V | 0 mm | 
9 | CN(C)c1cccc2c(S(=O)(=O)ON3C(=O)CC3CBr)cccc12 (stereo not drawn) [Compound 61h] | 0 mm | 0 |  | 0 | 0 mm |  |  | 0 mm | 15* mm | 0 mm | 
